Experimental data: publication PMC7699892, “Repositioned Drugs for Chagas Disease Unveiled via Structure-Based Drug Repositioning” (International Journal of Molecular Sciences, 2020)
Where two headings read alike, the source gives them in different places.

Tests used:
T. cruzi INC-5 strain = assay: in vivo short-term trypanocidal activity (parasitemia) in infected CD1 mice, INC-5 strain; set-up: species or system Trypanosoma cruzi in CD1 mice
Procedure: (§1) Parasitemia was monitored at 2, 4, 6, and 8 h after administration (see Figure 2).
(§2) CD1 strain mice, 6–8 weeks old, were used to maintain Ninoa and INC-5 strains of T. cruzi. Animals were given by the University of Science and Arts of Chiapas. To maintain the strains, animals were intraperitoneally inoculated every 14 days with 1 × 10^5 blood trypomastigote, obtained from parasite-infected mice. Parasitemia was monitored every three days by the Pizzi method. For this, 5 µL of blood from the caudal vein of infected mice were deposited on a slide and evenly distributed with an 18 × 18 mm coverslip. Parasite counting was performed by observing 15 microscopic fields using a 40 × objective lens. For the in vivo short term evaluation of the trypanocidal activity of the FDA-approved drugs, six groups of six CD1 mice each with homogeneous weight and parasitemia were used.
(§3) In vivo short-term evaluation of the trypanocidal activity of the FDA-approved drugs. Six groups of six CD1 female mice were infected with blood trypomastigotes of Ninoa and INC-5 strains following the methodology previously described in Romanha et al. and in Díaz-Chiguer et al.. At day 13 post-infection, when the infected mice reached an average of 5 × 10^6 parasites/mL, a single dose of the FDA-approved drugs at 100 mg/kg body weight was orally administered. Parasitemia was monitored following the Pizzi method at 2, 4, 6, and 8 h post-treatment […] using mineral oil as a vehicle. […] Mice examination was performed as stated in the Norma Official Mexicana (NOM-062-Z00-1999), published on August 2009.

[1] = tested on: T. cruzi epimastigote (Ninoa strain); assay: in vitro evaluation against epimastigotes, Ninoa strain (resazurin); assay type: cell-based; details: Trypanosoma cruzi, 48 h at 28 °C
Excerpt: (§4) The high-priority hit drugs were subjected to experimental validation in vitro, ex vivo, and in vivo, together with a cytotoxicity assay. Ninoa and INC-5 strains of T. cruzi were used in this study. […] In vitro evaluation of different FDA-approved drugs against Trypanosoma cruzi epimastigotes. The epimastigote stage of Ninoa and INC5 strains of T. cruzi were used to evaluated the in vitro trypanocidal activity of different FDA-approved drugs. Both strains were maintained in liver infusion tryptose (LIT) medium, supplemented with 10% fetal bovine serum (FBS) and 0.1% penicillin–streptomycin. They were preserved by transferring 1 × 10^6 parasites/mL into a new culture medium every week. […] All compounds were initially prepared at 10 mg/mL, using dimethyl sulfoxide (DMSO) as diluent. Serial dilutions were performed using complemented LIT medium until concentrations of 100 to 0.46 µg/mL of each drug were obtained. […] After the incubation period, 20 µL of 2.5 mM resazurin solution were added to each well and incubated for 3 h. All assays were carried out in triplicate.

[2] = tested on: T. cruzi blood trypomastigote (Ninoa strain); assay: ex vivo evaluation against blood trypomastigotes, Ninoa strain; assay type: cell-based; details: Trypanosoma cruzi, 24 h at 4 °C
Excerpt: (§5) The high-priority hit drugs were subjected to experimental validation in vitro, ex vivo, and in vivo, together with a cytotoxicity assay. Ninoa and INC-5 strains of T. cruzi were used in this study. The Ninoa strain was obtained in 1986 by xenodiagnoses from an acute case of Chagas’ disease in Oaxaca, Mexico, whereas the INC-5 strain was obtained in 1997 from a chronic case of Chagas’ disease in a person in Guanajuato, Mexico.
(§6) Ex vivo evaluation of different FDA-approved drugs against Trypanosoma cruzi blood trypomastigotes. The ex vivo evaluation of the trypanocidal activity of the FDA-approved drugs was carried out according to the methodology described above. Blood from parasite infected animals was obtained from intracardiac puncture and diluted with phosphate-buffered saline (PBS), pH 7.2, until a concentration of 2 × 10^6 blood trypomastigotes/mL was obtained. From this, 195 µL of blood/well was placed in a 96-well plate and incubated at 4 °C for 24 h with 5 µL of each drug tested at different concentrations (5 µg/mL to […]). […] After incubation, live parasites were counted in a Neubauer chamber and the IC50 was calculated. Three independent experiments by triplicate were performed.

[3] = tested on: T. cruzi epimastigote (INC-5 strain); assay: in vitro evaluation against epimastigotes, INC-5 strain (resazurin); assay type: cell-based; details: Trypanosoma cruzi, 48 h at 28 °C
Excerpt: as §4

T. brucei = tested on: T. brucei; set-up: method as in Nenortas et al. 70; details: ref Nenortas et al. 70; read-out: EC50, active against T. brucei in vitro; cited from earlier work
T. cruzi Ninoa strain = assay: in vivo short-term trypanocidal activity (parasitemia) in infected CD1 mice, Ninoa strain; set-up: species or system Trypanosoma cruzi in CD1 mice
Procedure: as §1, §2, §3

[4] = tested on: T. cruzi blood trypomastigote (INC-5 strain); assay: ex vivo evaluation against blood trypomastigotes, INC-5 strain; assay type: cell-based; details: Trypanosoma cruzi
Excerpt: as §5, §6

T. cruzi [5] = tested on: T. cruzi; set-up: method as in per drug in column Reference of Table 2; details: class of literature evidence of trypanocidal activity; ref per drug in Table 2; cited from earlier work; on Trypan. Activity: key: ? indicates unknown activity; + indicates indirect evidence of activity; ++ indicates direct evidence of activity
T. cruzi DHFR = target: T. cruzi DHFR; set-up: method as in PMID 12084467; details: read-out: Ki, inhibitor of T. cruzi DHFR; cited from earlier work
T. cruzi [6] = tested on: T. cruzi; set-up: method as in PMID 25033456; details: read-out: EC50, inhibition of T. cruzi growth in vitro; cited from earlier work; on Trypan. Activity: key: ? indicates unknown activity; + indicates indirect evidence of activity; ++ indicates direct evidence of activity
[7] = tested on: T. cruzi reverse transcriptase; set-up: method as in PMID 8913446; details: cited from earlier work

SMILES	Parasitemia inhibition percentage over the time, 2 horas INC-5 (T. cruzi INC-5 strain; 100 mg/kg oral, 2 horas, INC-5)	Parasitemia inhibition percentage over the time, 4 horas INC-5 (T. cruzi INC-5 strain; 100 mg/kg oral, 4 horas, INC-5)	Parasitemia inhibition percentage over the time, 6 horas INC-5 (T. cruzi INC-5 strain; 100 mg/kg oral, 6 horas (first column so headed), INC-5)	Parasitemia inhibition percentage over the time, 6 horas INC-5 (T. cruzi INC-5 strain; 100 mg/kg oral, 6 horas (second, last column so headed), INC-5)	parasitemia inhibition (T. cruzi INC-5 strain; mice infected with INC-5 strain, single oral dose 100 mg/kg, eight hours after administration) [%]	IC50 [1] [µM]	IC50 [2] [µM]	IC50 [3] [µM]	EC50 (T. brucei) [µM]	Parasitemia inhibition percentage over the time, 2 horas Ninoa (T. cruzi Ninoa strain; 100 mg/kg oral, 2 horas, Ninoa)	Parasitemia inhibition percentage over the time, 4 horas Ninoa (T. cruzi Ninoa strain; 100 mg/kg oral, 4 horas, Ninoa)	Parasitemia inhibition percentage over the time, 6 horas Ninoa (T. cruzi Ninoa strain; 100 mg/kg oral, 6 horas (first column so headed), Ninoa)	Parasitemia inhibition percentage over the time, 6 horas Ninoa (T. cruzi Ninoa strain; 100 mg/kg oral, 6 horas (second, last column so headed), Ninoa)	parasitemia inhibition (T. cruzi Ninoa strain; mice infected with Ninoa strain, single oral dose 100 mg/kg, eight hours after administration) [%]	IC50 ([4]; ex vivo, INC-5 strain, 24 h at 4 °C, read-out: T.cruzi blood trypomastigote IC50 INC-5) [µM]	IC50 ([4]; rounded value in the discussion, refers to Table 3, strain not stated, read-out: IC50, inhibitor of T. cruzi trypomastigotes) [µM]	Trypan. Activity (T. cruzi [5])	Ki (T. cruzi DHFR) [µM]	EC50 (T. cruzi [6]) [µM]	inhibition of T. cruzi reverse transcriptase [7]
O=C(O)c1cn(C2CC2)c2cc(N3CCNCC3)c(F)cc2c1=O [Ciprofloxacin]	100	75	62.5	56.2	43.8	> 400	25.7 ± 0.04	> 400	52	100	50	33.3	33.3	66.7	21.3 ± 0.09	21				
CCc1nc(N)nc(N)c1-c1ccc(Cl)cc1 [Pyrimethamine]																	++	0.1	3.8	
Cc1cn([C@H]2C[C@H](N=[N+]=[N-])[C@@H](CO)O2)c(=O)[nH]c1=O [Zidovudine]																	++			does not inhibit
